Reference: patent US7390910B2, “Compounds for treating tumors” (priority 2003, dated 2008)
pIC50: −log10 of the molar value.

Experiments:
Colo205 = test: Cell survival assay (SRB), Colo205; assay type: cell-based; conditions: Colo205 cells, 3 days
Protocol: (§1) Cell Survival Assay: Standard Pharmacological Test Procedure. […] Compounds are incubated with cells for 3 days.

[1] = system: bovine microtubule-associated protein (MAP)-rich tubulin; assay type: biochemical; conditions: 0.3 uM
Outline: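 This in vitro polymerization assay used bovine tubulin rich in microtubule-associated proteins, prepared at 1.5 mg/ml in GPEM (PEM buffer containing 1 mM GTP) and cleared by a 12,000×g spin. Tubulin solution (100 μl/well) was dispensed onto duplicate 10 μl test samples. Control wells held 0.3% DMSO. A SpectraMax Plus reader recorded turbidity at 340 nm every minute over 60 min at 24° C.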

KB85 = test: cells; assay type: cell-based; conditions: for pIC50: 3 days, SRB; for inhibition at 3 µM: 3000 nM
Protocol: as §1

KB cells = test: cells; assay type: cell-based; conditions: for pIC50: 3 days, SRB
Protocol: as §1

KBV1 = test: cells; assay type: cell-based; conditions: for inhibition at 3 µM: KB-V1, 3000 nM; for pIC50: 3 days, SRB
Protocol: as §1

LOX = test: Cell survival assay (SRB), LOX; assay type: cell-based, human; conditions: LOX cells
Protocol: as §1

HCT-15 = test: Cell survival assay (SRB), HCT-15; assay type: cell-based; conditions: HCT-15 cells
Protocol: as §1

NCl-H1299 = test: Cell survival assay (SRB), NCl-H1299; assay type: cell-based; conditions: NCl-H1299 cells
Protocol: as §1

Row | Molecule | pIC50 (Colo205; Homo sapiens, COLO 205, 72 h) | Tubulin Polym. % inhibition at 0.3 uM [1] [%] | pIC50 (KB85; 72 h) | pIC50 (KB cells; Homo sapiens, KB, 72 h) | inhibition at 3 µM (KBV1; Homo sapiens) [%] | pIC50 (KB85) | pIC50 (KB cells) | pIC50 (KBV1; Homo sapiens, KB-V1, 72 h) | other results
1 | CSC(C(=O)N[C@H](C(=O)N(C)[C@H](/C=C(\C)C(=O)O)C(C)C)C(C)(C)C)C(C)(C)c1ccccc1 (stereo partly drawn) [Example 102, (E,4S)-4-[((2S)-3,3-dimethyl-2-{[3-methyl-2-methylsulfanyl-3-phenylbutanoyl]amino}butanoyl)(methyl)amino]-2,5-dimethyl-2-hexenoic acid] | 6.55 | 79 | 5.94 | 6.16 | – | – | – | – | KBV1 % inhibition @6000 (KBV1; @6000): 40%@6000
2 | C/C(=C\[C@H](C(C)C)N(C)C(=O)[C@@H](NC(=O)C(C(C)(C)c1ccccc1)S(C)(=O)=O)C(C)(C)C)C(=O)O (stereo partly drawn) [Example 103, (E,4S)-4-[((2S)-3,3-dimethyl-2-{[3-methyl-2-methylsulfonyl-3-phenylbutanoyl]amino}butanoyl)(methyl)amino]-2,5-dimethyl-2-hexenoic acid] | 6.12 | 80 | 5.78 | 5.76 | 5 | – | – | – | inhibition at 3 µM (KB85): 30%
3 | CCOC(=O)/C(C)=C/[C@H](C(C)C)N(C)C(=O)[C@@H](NC(=O)C(OC)C(C)(C)c1ccccc1)C(C)(C)C (stereo partly drawn) [Example 104, Ethyl (E,4S)-4-[{(2S)-2-[(2-methoxy-3-methyl-3-phenylbutanoyl)amino]-3,3-dimethylbutanoyl}(methyl)amino]-2,5-dimethyl-2-hexenoate] | < 6.00 | 38 | 5.67 | 5.76 | – | 5.52 | 5.52 | 5.62 | pIC50 (KBV1): 5.52
4 | CO[C@H](C(=O)N[C@H](C(=O)N(C)[C@H](/C=C(\C)C(=O)O)C(C)C)C(C)(C)C)C(C)(C)c1ccccc1 [Example 105, (E,4S)-4-[{N-[(2S)-2-methoxy-3-methyl-3-phenylbutanoyl]-3-methyl-L-valyl}(methyl)amino]-2,5-dimethyl-2-hexenoic acid] | 5.76 | 64 | – | 5.57 | 0 | – | – | – | pIC50 (LOX; Homo sapiens): 5.76; inhibition at 3 µM (KB85): 21%; inhibition at 3 µM (KB cells; Homo sapiens, 72 h, 3000 nM): 43%
5 | CO[C@@H](C(=O)N[C@H](C(=O)N(C)[C@H](/C=C(\C)C(=O)O)C(C)C)C(C)(C)C)C(C)(C)c1ccccc1 [Example 106, (E,4S)-4-[{N-[(2R)-2-methoxy-3-methyl-3-phenylbutanoyl]-3-methyl-L-valyl}(methyl)amino]-2,5-dimethyl-2-hexenoic acid] | 6.03 | 54 | 5.91 | 5.85 | 22 | – | – | – | –
6 | C/C(=C\[C@H](C(C)C)N(C)C(=O)[C@@H](NC(=O)[C@@H](O)C(C)(C)c1ccccc1)C(C)(C)C)C(=O)O [Example 107, (E,4S)-4-[{N-[(2S)-2-hydroxy-3-methyl-3-phenylbutanoyl]-3-methyl-L-valyl}(methyl)amino]-2,5-dimethyl-2-hexenoic acid] | < 6.00 | 21 | < 5.52 | < 5.52 | – | – | – | < 5.52 | –
7 | C/C(=C\[C@H](C(C)C)N(C)C(=O)[C@@H](NC(=O)[C@H](O)C(C)(C)c1ccccc1)C(C)(C)C)C(=O)O [Example 108, (E,4S)-4-[{N-[(2R)-2-hydroxy-3-methyl-3-phenylbutanoyl]-3-methyl-L-valyl}(methyl)amino]-2,5-dimethyl-2-hexenoic acid] | < 6.00 | 21 | < 5.52 | < 5.52 | – | – | – | < 5.52 | –
8 | (2E,4S)-2,5-dimethyl-4-(methyl{3-methyl-N-[(2S)-3-methyl-2-(methylamino)-3-phenylbutyl]-L-valyl}amino)-2-hexenoic acid [Example 87] | – | 28 | – | – | – | 6.51 | 6.98 | – | pIC50 (LOX): 6.82; pIC50 (HCT-15): 6.12; pIC50 (NCl-H1299): 6.53; KBV1 % inhibition @ 3000 nM (KBV1): 14%(2)
9 | (E,4S)-4-[((2S)-2-{[(2S)-2-azido-3-methyl-3-phenylbutanoyl]amino}-3,3-dimethylbutanoyl)(methyl)amino]-2,5-dimethyl-2-hexenoic acid and (E,4S)-4-[((2S)-2-{[(2R)-2-azido-3-methyl-3-phenylbutanoyl]amino}-3,3-dimethylbutanoyl)(methyl)amino]-2,5-dimethyl-2-hexenoic acid [Example 94] | – | 73 | – | – | – | 5.88 | 5.89 | – | pIC50 (Colo205): 6.34; KBV1 % inhibition @ 3000 nM (KBV1): 30%(2)
